Source: publication PMC5350466 (mBio, 2017)
Values after ≈ are worked out from the molar mass of the structure shown.

Key:
bcnA::luxCDABE = assay: Luciferase expression assay, bcnA::luxCDABE; format: cell-based, Burkholderia cenocepacia; conditions: antibiotic at concentrations near the MIC (sublethal), 3 h
bcnB::luxCDABE = assay: Luciferase expression assay, bcnB::luxCDABE; format: cell-based, Burkholderia cenocepacia; conditions: antibiotic at concentrations near the MIC (sublethal), 3 h
BcnA [1] = molecular target: T1, BcnA (Burkholderia cenocepacia, UniProt B4EE32); assay: Antibiotic bioassay of sequestration by BcnA; format: binding; conditions: 1.5 µM BcnA, 30 min at 37°C, 10-kDa cutoff filtration
T1 sequence (B4EE32 27-186): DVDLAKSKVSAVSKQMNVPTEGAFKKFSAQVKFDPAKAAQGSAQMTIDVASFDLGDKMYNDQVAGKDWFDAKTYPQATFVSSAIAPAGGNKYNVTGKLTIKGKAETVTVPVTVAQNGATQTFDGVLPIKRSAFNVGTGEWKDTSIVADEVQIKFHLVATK
Experimental: Antibiotic test solutions with or without 1.5 µM BcnA were incubated for 30 min at 37°C with rotation. The solutions were filtered through filter units with a 10-kDa cutoff by centrifugation at 7,500 × g, at 4°C for 10 min. The antibiotic concentrations in the filtrates were determined by spotting 5 µl onto sterile filter discs placed on agar plates swabbed with the test bacteria. Petri dishes (15-cm diameter) containing 40 ml of LB agar were swabbed with bacterial suspensions with an OD600 of 0.04. The plates were incubated at 37°C for 24 h. Each plate included four discs containing standard concentrations of the antibiotic alongside the discs impregnated with test and control antibiotic solutions. E. coli DH5α was used for bioassays of PmB, norfloxacin, ceftazidime, and gentamicin, and S. aureus USA300 was used for bioassays of rifampin. The theoretical disc contents of the test antibiotic solutions were 10, 5, 2, 30, and 10 µg for PmB, rifampin, norfloxacin, ceftazidime, and gentamicin, respectively. Standard antibiotic discs contained a 2-fold higher concentration than, the same concentration as, or a 2- or 4-fold lower concentration than the test antibiotic discs. After incubation, the clear zones of inhibition were measured and the antibiotic concentrations were determined from standard curves constructed from the standard antibiotic discs.

B. cenocepacia K56-2 = assay: MIC by broth microdilution, parental strain; format: cell-based, Burkholderia cenocepacia; conditions: broth microdilution in cation-adjusted MHB at 18 to 24 h; for MIC: Burkholderia cenocepacia, K562
BcnA [2] = molecular target: T1, BcnA; assay: In vitro binding assay: Nile red displacement from BcnA; conditions: against 1.5 µM Nile red binding to 1.5 µM BcnA in PBS; read-out: binding inhibition constant (Ki)
Experimental: In vitro binding assays were performed as previously described ([23]), with a few modifications. Purified BCNs were prepared in phosphate-buffered saline (PBS, pH 7.4). Phospholipids and Nile red were prepared in DMSO. […] All spectra were corrected for background fluorescence determined from probe-into-buffer titrations. Fluorescence was measured with a Cary Eclipse fluorescence spectrophotometer (Varian) set at an excitation wavelength (λex) specific for each probe, as follows: Nile red, 550 nm; BODIPY phospholipids, 500 nm for fatty acyl BODIPY-labeled phosphocholine and 505 nm for head group BODIPY-labeled phosphoethanolamine. The emission spectrum for each probe was collected across the following wavelengths (λem): Nile red, 590 to 750 nm; BODIPY phospholipids, 510 to 665 nm. The background-corrected binding fluorescence with each probe was fitted to a one-site binding model as previously described for human AGP ([23]). The equilibrium binding affinity constant for the probe-BCN complex (Kd), the probe concentration needed to achieve half-maximum binding at equilibrium, was determined by nonlinear least-squares regression analysis of the binding isotherms with GraphPad Prism v 5.0 software (GraphPad Software, Inc.).
For probe displacement experiments, antibiotic solutions and fat-soluble vitamins (prepared in DMSO) diluted in PBS, pH 7.4, were titrated against a BCN-probe complex at a saturating concentration necessary to obtain the maximum fluorescence when bound. Probe displacement was measured as the corresponding decrease in fluorescence upon the progressive increase in the antibiotic concentration. The binding inhibition constants (Kis) of the test compounds were determined by nonlinear regression analysis with competition-binding equations for one-site binding calculated by GraphPad Prism v 5.0 software. The lower the Ki values, the higher the affinity of the molecule for BcnA. All fluorometric assays were conducted in duplicate three independent times.

[3] = tested on: B. cenocepacia ΔbcnB mutant; assay: MIC by broth microdilution, ΔbcnB mutant; format: cell-based, Burkholderia cenocepacia; conditions: broth microdilution in cation-adjusted MHB at 18 to 24 h
[4] = tested on: B. cenocepacia ΔbcnA mutant; assay: MIC by broth microdilution, ΔbcnA mutant; format: cell-based, Burkholderia cenocepacia
K56-2 pSCRhaB2 = assay: MIC by E test; format: cell-based; conditions: Burkholderia cenocepacia, 24 h, read-out: MIC by Etest, K56-2 pSCRhaB2
ΔbcnA pbcnA (Sa) = assay: MIC by E test; format: cell-based, Burkholderia cenocepacia; conditions: 24 h
ΔbcnA pSCRhaB2 = assay: MIC by E test; format: cell-based, Burkholderia cenocepacia; conditions: 24 h

Row | Compound | expression of bcnA::luxCDABE upon exposure to antibiotic (bcnA::luxCDABE) | antibiotic sequestration by BcnA (BcnA [1]) | MIC (B. cenocepacia K56-2) [µg/mL] | Ki (BcnA [2]) [µM] | further results
1 | CCn1cc(C(=O)O)c(=O)c2cc(F)c(N3CCNCC3)cc21 [Norfloxacin, norfloxacin] | upregulated | sequestered | 128 (≈ 401 µM) | 400 | expression of bcnB::luxCDABE upon exposure to antibiotic (bcnB::luxCDABE): increased
2 | CC[C@H]1OC(=O)[C@H](C)[C@@H](O[C@H]2C[C@@](C)(OC)[C@@H](O)[C@H](C)O2)[C@H](C)[C@@H](O[C@@H]2O[C@H](C)C[C@H](N(C)C)[C@H]2O)[C@](C)(O)C[C@@H](C)CN(C)[C@H](C)[C@@H](O)[C@]1(C)O [Azithromycin, azithromycin] |  |  | 64 (≈ 85.4 µM) |  | 
3 | polymyxin B [PmB] | upregulated | sequestered |  |  | MIC ΔbcnB [3]: ≥ 4096 µg/mL; MIC ΔbcnA ([4]; broth microdilution in cation-adjusted MHB at 18 to 24 h): 2048 µg/mL; MIC reduction in the ΔbcnA mutant ([4]; ΔbcnA mutant relative to parental strain): 4 fold; MIC K56-2 (B. cenocepacia K56-2): ≥ 4096 µg/mL
4 | CNC(C)C1CCC(N)C(OC2C(N)CC(N)C(OC3OCC(C)(O)C(NC)C3O)C2O)O1 (centres unmarked) [Gentamicin, gentamicin] | remained unchanged | not | 2050 (≈ 4290 µM) |  | 
5 | CC(C)(O/N=C(\C(=O)N[C@@H]1C(=O)N2C(C(=O)[O-])=C(C[n+]3ccccc3)CS[C@H]12)c1csc(N)n1)C(=O)O [Ceftazidime, ceftazidime] | upregulated | sequestered | 32 (≈ 58.5 µM) | 16900 | MIC (K56-2 pSCRhaB2): 8 µg/mL (≈ 14.6 µM); MIC by Etest, ΔbcnA pbcnA (Sa) (ΔbcnA pbcnA (Sa)): 8 µg/mL (≈ 14.6 µM); expression of bcnB::luxCDABE upon exposure to antibiotic (bcnB::luxCDABE): increased; MIC by Etest, ΔbcnA pSCRhaB2 (ΔbcnA pSCRhaB2): 2 μg/ml
6 | menaquinone [Vit K2] |  |  |  | 0.569 | 
7 | O=C(O)c1cn(C2CC2)c2cc(N3CCNCC3)c(F)cc2c1=O [Cipro, ciprofloxacin] |  |  |  |  | MIC (K56-2 pSCRhaB2): 4 µg/mL (≈ 12.1 µM); MIC by Etest, ΔbcnA pbcnA (Sa) (ΔbcnA pbcnA (Sa)): 4 µg/mL (≈ 12.1 µM); MIC by Etest, ΔbcnA pSCRhaB2 (ΔbcnA pSCRhaB2): 2 μg/ml
8 | CO[C@H]1/C=C/O[C@@]2(C)Oc3c(C)c(O)c4c(O)c(c(/C=N/N5CCN(C)CC5)c(O)c4c3C2=O)NC(=O)/C(C)=C\C=C\[C@H](C)[C@H](O)[C@@H](C)[C@@H](O)[C@@H](C)[C@H](OC(C)=O)[C@@H]1C [Rifampicin, rifampin] | upregulated | sequestered | 256 (≈ 311 µM) | 16.5 | MIC (K56-2 pSCRhaB2): ≥ 64 µg/mL; MIC by Etest, ΔbcnA pbcnA (Sa) (ΔbcnA pbcnA (Sa)): ≥ 64 µg/mL; MIC by Etest, ΔbcnA pSCRhaB2 (ΔbcnA pSCRhaB2): 16 μg/ml
9 | COc1cc(Cc2cnc(N)nc2N)cc(OC)c1OC [Trimethoprim, trimethoprim] |  |  | 8 (≈ 27.6 µM) |  | 
10 | C[C@@H](O)[C@H]1C(=O)N2C(C(=O)O)=C(S[C@@H]3CN[C@H](C(=O)N(C)C)C3)[C@H](C)[C@H]12 [Meropenem, meropenem] |  |  | 1 (≈ 2.61 µM) |  | 
11 | Cc1c(C)c2c(c(C)c1O)CC[C@@](C)(CCC[C@H](C)CCC[C@H](C)CCCC(C)C)O2 [Vit E, α-tocopherol] |  |  |  | 0.417 | 
12 | CN(C)c1ccc(O)c2c1C[C@H]1C[C@H]3[C@H](N(C)C)C(O)=C(C(N)=O)C(=O)[C@@]3(O)C(O)=C1C2=O [Minocycline, minocycline] |  |  | 2 (≈ 4.37 µM) |  | 
